Experimental data published in PMC11279465, “Dual Inhibitors of P-gp and Carbonic Anhydrase XII (hCA XII) against Tumor Multidrug Resistance with Piperazine Scaffold” (Molecules, 2024).

Experiments:
[1] = target: T1, hCA II (Homo sapiens, UniProt P00918); assay: CA inhibition, stopped-flow CO2 hydrase assay; assay type: biochemical; conditions: stopped-flow technique; incubation time 6 h; mean of 3 assays
T1 construct: made in house
Protocol: (§1) Four hCA isoforms were used in this assay: the cytosolic hCA I and II and the tumor-associated transmembrane hCA IX and XII isoforms. Acetazolamide (AAZ) was used as a standard inhibitor.
(§2) An SX.18MV-R Applied Photophysics (Oxford, UK) stopped-flow instrument has been used to assay the catalytic/inhibition of various CA isozymes. […] Saturated CO2 solutions in water at 25 °C were used as substrate. Stock solutions of inhibitors were prepared at a concentration of 10 μM (in DMSO-water 1:1, v/v) and dilutions up to 0.01 nM were carried out with the assay buffer mentioned above. […] Inhibitor and enzyme solutions were preincubated together for 6 h at room temperature prior to assay in order to allow for the formation of the E-I complex. […] The inhibition constants were obtained by non-linear least-squares methods using the Cheng–Prusoff equation, as reported earlier, and represent the mean from at least three different determinations.

[2] = target: T2, hCA I (Homo sapiens, UniProt P00915); assay: CA inhibition, stopped-flow CO2 hydrase assay; assay type: biochemical; conditions: stopped-flow technique; incubation time 6 h; mean of 3 assays
T2 construct: made in house
Protocol: as §1, §2

[3] = target: T3, hCA IX (Homo sapiens, UniProt Q16790); assay: CA inhibition, stopped-flow CO2 hydrase assay; assay type: biochemical; conditions: stopped-flow technique; incubation time 6 h; mean of 3 assays
T3 construct: made in house
Protocol: as §1, §2

[4] = target: T4, hCA XII (Homo sapiens, UniProt O43570); assay: CA inhibition, stopped-flow CO2 hydrase assay; assay type: biochemical; conditions: stopped-flow technique; incubation time 6 h; mean of 3 assays
T4 construct: made in house
Protocol: as §1, §2

[5] = tested on: K562/DOX cells; assay: Doxorubicin cytotoxicity enhancement assay (MTT); assay type: cell-based, human; conditions: 72 h
Protocol: K562 is a highly undifferentiated erythroleukemia cell line. The doxorubicin-resistant K562/DOX cells overexpress almost exclusively the transporter membrane protein P-gp.
K562/DOX cells were incubated for 72 h with different concentrations of doxorubicin in combination with 1 or 3 µM of all compounds. […] HT29, A549, HT29/DOX and A549/DOX cells were incubated for 48 h with 5 µM doxorubicin, alone or in combination with 1 or 3 µM of selected compounds. Cell viability of the cell lines was measured by the MTT assay, using a Synergy HT microplate spectrofluorometer (Bio-Tek Instruments, Winooski, VT, USA). The absorbance of untreated cells was considered 100%; results were expressed as a percentage of viable treated cells versus the control untreated cells.

T2 sequence (P00915 whole entry): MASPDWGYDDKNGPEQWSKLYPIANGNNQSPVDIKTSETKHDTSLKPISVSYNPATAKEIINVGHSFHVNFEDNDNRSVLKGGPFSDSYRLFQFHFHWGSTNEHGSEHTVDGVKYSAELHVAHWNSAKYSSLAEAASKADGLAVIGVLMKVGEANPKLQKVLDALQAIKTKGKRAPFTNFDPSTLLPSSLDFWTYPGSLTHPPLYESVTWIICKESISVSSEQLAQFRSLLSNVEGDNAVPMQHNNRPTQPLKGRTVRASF
T4 sequence (O43570 25-354): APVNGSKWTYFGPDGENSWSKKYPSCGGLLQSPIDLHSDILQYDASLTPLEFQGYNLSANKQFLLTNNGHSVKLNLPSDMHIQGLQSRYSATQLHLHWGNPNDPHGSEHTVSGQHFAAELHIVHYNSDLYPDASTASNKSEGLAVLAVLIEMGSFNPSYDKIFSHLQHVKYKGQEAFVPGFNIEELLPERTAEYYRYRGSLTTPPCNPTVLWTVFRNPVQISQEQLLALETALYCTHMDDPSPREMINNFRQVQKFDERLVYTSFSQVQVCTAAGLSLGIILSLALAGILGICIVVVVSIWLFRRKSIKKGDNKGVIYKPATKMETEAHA

COc1cc(/C=C/CN2CCN(CCCCOc3ccc4ccc(=O)oc4c3)CC2)cc(OC)c1OC [Compound 3, (E)-7-(4-(4-(3-(3,4,5-Trimethoxyphenyl)allyl)piperazin-1-yl)butoxy)-2H-chromen-2-one]
Ki [1]: > 10000 nM
Ki [2]: > 10000 nM
Ki [3]: 82 nM
Ki [4]: 34.6 nM
RF (Reversal Fold: IC50 of doxorubicin alone / in presence of modulator) ([5]; compound at 1 µM): 3.1
RF (Reversal Fold: IC50 of doxorubicin alone / in presence of modulator) ([5]; compound at 3 µM): 3.7

COc1cc(/C=C/CN2CCN(CCCCOc3ccc4c(C)cc(=O)oc4c3)CC2)cc(OC)c1OC [Compound 6, (E)-4-Methyl-7-(4-(4-(3-(3,4,5-trimethoxyphenyl)allyl)piperazin-1-yl)butoxy)-2H-chromen-2-one]
Ki [1]: > 10000 nM
Ki [2]: > 10000 nM
Ki [3]: 58.9 nM
Ki [4]: 44.8 nM
RF (Reversal Fold: IC50 of doxorubicin alone / in presence of modulator) ([5]; compound at 1 µM): 6.3
RF (Reversal Fold: IC50 of doxorubicin alone / in presence of modulator) ([5]; compound at 3 µM): 6.7

COc1cc(/C=C/CN2CCN(CCOc3ccc4oc(=O)cc(C)c4c3)CC2)cc(OC)c1OC [Compound 10, (E)-4-Methyl-6-(2-(4-(3-(3,4,5-trimethoxyphenyl)allyl)piperazin-1-yl)ethoxy)-2H-chromen-2-one]
Ki [1]: > 10000 nM
Ki [2]: > 10000 nM
Ki [3]: 360 nM
Ki [4]: 422 nM
RF (Reversal Fold: IC50 of doxorubicin alone / in presence of modulator) ([5]; compound at 1 µM): 1.0
RF (Reversal Fold: IC50 of doxorubicin alone / in presence of modulator) ([5]; compound at 3 µM): 1.4

COc1cc(/C=C/CN2CCN(CCCOc3ccc4oc(=O)cc(C)c4c3)CC2)cc(OC)c1OC [Compound 11, (E)-4-Methyl-6-(3-(4-(3-(3,4,5-trimethoxyphenyl)allyl)piperazin-1-yl)propoxy)-2H-chromen-2-one]
Ki [1]: > 10000 nM
Ki [2]: > 10000 nM
Ki [3]: 302 nM
Ki [4]: 441 nM
RF (Reversal Fold: IC50 of doxorubicin alone / in presence of modulator) ([5]; compound at 1 µM): 2.4
RF (Reversal Fold: IC50 of doxorubicin alone / in presence of modulator) ([5]; compound at 3 µM): 4.1

COc1cc(CN2CCN(CCOc3ccc4c(C)cc(=O)oc4c3)CC2)cc(OC)c1OC [Compound 16, 4-Methyl-7-(2-(4-(3,4,5-trimethoxybenzyl)piperazin-1-yl)ethoxy)-2H-chromen-2-one]
Ki [1]: > 10000 nM
Ki [2]: > 10000 nM
Ki [3]: 8.2 nM
Ki [4]: 51.9 nM
RF (Reversal Fold: IC50 of doxorubicin alone / in presence of modulator) ([5]; compound at 1 µM): 1.0
RF (Reversal Fold: IC50 of doxorubicin alone / in presence of modulator) ([5]; compound at 3 µM): 1.4

COc1cc(CN2CCN(CCCOc3ccc4c(C)cc(=O)oc4c3)CC2)cc(OC)c1OC [Compound 17, 4-Methyl-7-(3-(4-(3,4,5-trimethoxybenzyl)piperazin-1-yl)propoxy)-2H-chromen-2-one]
Ki [1]: > 10000 nM
Ki [2]: > 10000 nM
Ki [3]: 16.1 nM
Ki [4]: 60.8 nM
RF (Reversal Fold: IC50 of doxorubicin alone / in presence of modulator) ([5]; compound at 1 µM): 2.6
RF (Reversal Fold: IC50 of doxorubicin alone / in presence of modulator) ([5]; compound at 3 µM): 2.1

COc1cc(CN2CCN(CCCCOc3ccc4c(C)cc(=O)oc4c3)CC2)cc(OC)c1OC [Compound 18, 4-Methyl-7-(4-(4-(3,4,5-trimethoxybenzyl)piperazin-1-yl)butoxy)-2H-chromen-2-one]
Ki [1]: > 10000 nM
Ki [2]: > 10000 nM
Ki [3]: 28.5 nM
Ki [4]: 72.1 nM
RF (Reversal Fold: IC50 of doxorubicin alone / in presence of modulator) ([5]; compound at 1 µM): 1.9
RF (Reversal Fold: IC50 of doxorubicin alone / in presence of modulator) ([5]; compound at 3 µM): 3.2

COc1cc(CN2CCN(CCCOc3ccc4oc(=O)ccc4c3)CC2)cc(OC)c1OC [Compound 20, 6-(3-(4-(3,4,5-Trimethoxybenzyl)piperazin-1-yl)propoxy)-2H-chromen-2-one]
Ki [1]: > 10000 nM
Ki [2]: > 10000 nM
Ki [3]: 72 nM
Ki [4]: 22.4 nM
RF (Reversal Fold: IC50 of doxorubicin alone / in presence of modulator) ([5]; compound at 1 µM): 2.3
RF (Reversal Fold: IC50 of doxorubicin alone / in presence of modulator) ([5]; compound at 3 µM): 2.4

COc1cc(CN2CCN(CCCCOc3ccc4oc(=O)ccc4c3)CC2)cc(OC)c1OC [Compound 21, 6-(4-(4-(3,4,5-Trimethoxybenzyl)piperazin-1-yl)butoxy)-2H-chromen-2-one]
Ki [1]: > 10000 nM
Ki [2]: > 10000 nM
Ki [3]: 50.3 nM
Ki [4]: 15.9 nM
RF (Reversal Fold: IC50 of doxorubicin alone / in presence of modulator) ([5]; compound at 1 µM): 3.9
RF (Reversal Fold: IC50 of doxorubicin alone / in presence of modulator) ([5]; compound at 3 µM): 4.1

COc1cc(CN2CCN(CCOc3ccc4oc(=O)cc(C)c4c3)CC2)cc(OC)c1OC [Compound 22, 4-Methyl-6-(2-(4-(3,4,5-trimethoxybenzyl)piperazin-1-yl)ethoxy)-2H-chromen-2-one]
Ki [1]: > 10000 nM
Ki [2]: > 10000 nM
Ki [3]: 409 nM
Ki [4]: 229 nM
RF (Reversal Fold: IC50 of doxorubicin alone / in presence of modulator) ([5]; compound at 1 µM): 2.8
RF (Reversal Fold: IC50 of doxorubicin alone / in presence of modulator) ([5]; compound at 3 µM): 2.7

COc1cc(CN2CCN(CCCOc3ccc4oc(=O)cc(C)c4c3)CC2)cc(OC)c1OC [Compound 23, 4-Methyl-6-(3-(4-(3,4,5-trimethoxybenzyl)piperazin-1-yl)propoxy)-2H-chromen-2-one]
Ki [1]: > 10000 nM
Ki [2]: > 10000 nM
Ki [3]: 242 nM
Ki [4]: 304 nM
RF (Reversal Fold: IC50 of doxorubicin alone / in presence of modulator) ([5]; compound at 1 µM): 1.6
RF (Reversal Fold: IC50 of doxorubicin alone / in presence of modulator) ([5]; compound at 3 µM): 1.8

COc1cc(CN2CCN(CCCCOc3ccc4oc(=O)cc(C)c4c3)CC2)cc(OC)c1OC [Compound 24, 4-Methyl-6-(4-(4-(3,4,5-trimethoxybenzyl)piperazin-1-yl)butoxy)-2H-chromen-2-one]
Ki [1]: > 10000 nM
Ki [2]: > 10000 nM
Ki [3]: 205 nM
Ki [4]: 99.5 nM
RF (Reversal Fold: IC50 of doxorubicin alone / in presence of modulator) ([5]; compound at 1 µM): 1.4
RF (Reversal Fold: IC50 of doxorubicin alone / in presence of modulator) ([5]; compound at 3 µM): 2.5

COc1ccc(C(CCCN2CCN(CCCOc3ccc4ccc(=O)oc4c3)CC2)c2ccc(OC)cc2)cc1 [Compound 26, 7-(3-(4-(4,4-Bis(4-methoxyphenyl)butyl)piperazin-1-yl)propoxy)-2H-chromen-2-one]
Ki [1]: > 10000 nM
Ki [2]: > 10000 nM
Ki [3]: 153 nM
Ki [4]: 115 nM
RF (Reversal Fold: IC50 of doxorubicin alone / in presence of modulator) ([5]; compound at 1 µM): 5.5
RF (Reversal Fold: IC50 of doxorubicin alone / in presence of modulator) ([5]; compound at 3 µM): 17.3

COc1ccc(C(CCCN2CCN(CCOc3ccc4c(C)cc(=O)oc4c3)CC2)c2ccc(OC)cc2)cc1 [Compound 28, 7-(2-(4-(4,4-Bis(4-methoxyphenyl)butyl)piperazin-1-yl)ethoxy)-4-methyl-2H-chromen-2-one]
Ki [1]: > 10000 nM
Ki [2]: > 10000 nM
Ki [3]: 135 nM
Ki [4]: 103 nM

COc1ccc(C(CCCN2CCN(CCCCOc3ccc4c(C)cc(=O)oc4c3)CC2)c2ccc(OC)cc2)cc1 [Compound 30, 7-(4-(4-(4,4-Bis(4-methoxyphenyl)butyl)piperazin-1-yl)butoxy)-4-methyl-2H-chromen-2-one]
Ki [1]: > 10000 nM
Ki [2]: > 10000 nM
Ki [3]: 124 nM
Ki [4]: 82.4 nM
RF (Reversal Fold: IC50 of doxorubicin alone / in presence of modulator) ([5]; compound at 1 µM): 7.7

COc1ccc(C(CCCN2CCN(CCOc3ccc4oc(=O)ccc4c3)CC2)c2ccc(OC)cc2)cc1 [Compound 31, 6-(2-(4-(4,4-Bis(4-methoxyphenyl)butyl)piperazin-1-yl)ethoxy)-2H-chromen-2-one]
Ki [1]: > 10000 nM
Ki [2]: > 10000 nM
Ki [3]: 115 nM
Ki [4]: 90.7 nM
RF (Reversal Fold: IC50 of doxorubicin alone / in presence of modulator) ([5]; compound at 1 µM): 3.0
RF (Reversal Fold: IC50 of doxorubicin alone / in presence of modulator) ([5]; compound at 3 µM): 11.4

COc1ccc(C(CCCN2CCN(CCOc3ccc4oc(=O)cc(C)c4c3)CC2)c2ccc(OC)cc2)cc1 [Compound 34, 6-(2-(4-(4,4-Bis(4-methoxyphenyl)butyl)piperazin-1-yl)ethoxy)-4-methyl-2H-chromen-2-one]
Ki [1]: > 10000 nM
Ki [2]: > 10000 nM
Ki [3]: 666 nM
Ki [4]: 851 nM
RF (Reversal Fold: IC50 of doxorubicin alone / in presence of modulator) ([5]; compound at 1 µM): 5.7
RF (Reversal Fold: IC50 of doxorubicin alone / in presence of modulator) ([5]; compound at 3 µM): 14.3
